Measured values published in the supplement of paper PMC10878532, “Sperm Toolbox—A selection of small molecules to study human spermatozoa” (PLOS ONE, 2024).

What was measured:
HeLa [1] = experiment: Cell Painting percent induction (share of features beyond 2 z-scores vs DMSO); higher = more features changed / larger toxic effect; extreme values may be limits of the assay; conditions: incubation time: 24h incubation
human spermatozoa [2] = experiment: total motile sperm, percent change vs DMSO (non-capacitating); higher = more of the measured sperm population than DMSO, for viability, fewer PI-positive (dead) cells than DMSO
human spermatozoa [3] = experiment: progressively motile sperm, percent change vs DMSO (non-capacitating); higher = more of the measured sperm population than DMSO, for viability, fewer PI-positive (dead) cells than DMSO; extreme values may be limits of the assay
human spermatozoa [4] = experiment: change in acrosome-reacted (PNA+) sperm vs DMSO, no agonist (capacitating); higher = more of the measured sperm population than DMSO, for viability, fewer PI-positive (dead) cells than DMSO; conditions: incubation time: 3h
human spermatozoa [5] = experiment: progressively motile sperm, percent change vs DMSO (capacitating); higher = more of the measured sperm population than DMSO, for viability, fewer PI-positive (dead) cells than DMSO; conditions: incubation time: 30min incubation
HeLa [6] = experiment: HeLa toxicity: nuclei-count effect normalised to DMSO (DMSO = 0); higher = more features changed / larger toxic effect; conditions: incubation time: 24h incubation
human spermatozoa [7] = experiment: viability fold change, 1 - (PI-positive fraction / DMSO median); higher = more of the measured sperm population than DMSO, for viability, fewer PI-positive (dead) cells than DMSO; conditions: incubation time: 3h, non-capacitating
human spermatozoa [8] = experiment: hyperactivated motile sperm, percent change vs DMSO (capacitating); higher = more of the measured sperm population than DMSO, for viability, fewer PI-positive (dead) cells than DMSO; conditions: incubation time: 30min incubation
human spermatozoa [9] = experiment: acrosome-reacted (PNA+) sperm after agonist cocktail, percent change vs DMSO (capacitating); higher = more of the measured sperm population than DMSO, for viability, fewer PI-positive (dead) cells than DMSO; conditions: incubation time: 3h, capacitating + agonist cocktail 1h
HepG2 = HepG2 toxicity (resazurin), effect normalised to DMSO (DMSO = 0); higher = more features changed / larger toxic effect; conditions: incubation time: 70h incubation
[10] = incubation time: 10min incubation, 9.99 µM
[11] = incubation time: 10min incubation, 29.9 µM
[12] = incubation time: 3h incubation, 9.99 µM
[13] = incubation time: 3h incubation, 29.9 µM
[14] = incubation time: 6h incubation, 9.99 µM
[15] = incubation time: 6h incubation, 29.9 µM
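Throughout, for progressively motile sperm, percent change vs DMSO (non-capacitating): pooled live human sperm from at least 3 donors, tracked by automated microscopy in 0.5 s time-lapse movies, compounds at 10 and 30 µM, versus median of 16 DMSO wells per plate.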
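Throughout, for total motile sperm, percent change vs DMSO (non-capacitating): sperm pooled from at least 3 donors, tracked in 0.5 s time-lapse movies by automated microscopy after 10 min, 3 h or 6 h with compound at 10 or 30 µM.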

Row | SMILES | Cell Painting percent induction (HeLa [1]; 9.99 µM) | Cell Painting percent induction (HeLa [1]; 29.9 µM) | total motile sperm (human spermatozoa [2]; [10]) | total motile sperm (human spermatozoa [2]; [11]) | total motile sperm (human spermatozoa [2]; [12]) | total motile sperm (human spermatozoa [2]; [13]) | total motile sperm (human spermatozoa [2]; [14]) | total motile sperm (human spermatozoa [2]; [15]) | progressively motile sperm (human spermatozoa [3]; [10]) | progressively motile sperm (human spermatozoa [3]; [11]) | progressively motile sperm (human spermatozoa [3]; [12]) | progressively motile sperm (human spermatozoa [3]; [13]) | progressively motile sperm (human spermatozoa [3]; [14]) | progressively motile sperm (human spermatozoa [3]; [15]) | change in acrosome-reacted (human spermatozoa [4]; 9.99 µM) | change in acrosome-reacted (human spermatozoa [4]; 29.9 µM) | progressively motile sperm (human spermatozoa [5]; 9.99 µM) | progressively motile sperm (human spermatozoa [5]; 29.9 µM) | HeLa toxicity: nuclei-count effect normalised (HeLa [6]; 9.99 µM) | HeLa toxicity: nuclei-count effect normalised (HeLa [6]; 29.9 µM) | viability fold change (human spermatozoa [7]; 9.99 µM) | viability fold change (human spermatozoa [7]; 29.9 µM) | hyperactivated motile sperm (human spermatozoa [8]; 9.99 µM) | hyperactivated motile sperm (human spermatozoa [8]; 29.9 µM) | acrosome-reacted (human spermatozoa [9]; 9.99 µM) | acrosome-reacted (human spermatozoa [9]; 29.9 µM) | HepG2 toxicity (HepG2; 10 µM) | HepG2 toxicity (HepG2; 30 µM)
1 | c1ccc2c(c1)SCc1c-2[nH]c2ccccc12 | 30.2% | 46% | -62% | -88.1% | -66.5% | -92.9% | -54.6% | -91.4% | -81.3% | -99.9% | -74.4% | -100% | -76% | -99.9% | 0.192% | 0.819% | -60.3% | -95.6% | 83.9% | 99.3% | 0.409 | 0.115 | -56.3% | -84.3% | 3.76% | -34.5% | 10.5% | 102%
2 | CC1(C)CC=C(c2ccccc2)c2cc(/C=C/c3ccc(C(=O)O)cc3)ccc21 | 0% | 0% | 2.52% | 2.83% | 0.861% | 0.353% | -4.19% | 0.705% | 8.04% | 5.98% | 18.8% | 9.32% | 6.74% | 13% | 1.18% | 1.38% | -4.62% | -9.29% | 6.08% | 8.35% | -1.22 | -0.368 | -3.7% | -30.1% | 10.6% | 7.54% | 0.925% | -8.39%
3 | Cc1ccc(S(=O)(=O)c2ccc([N+](=O)[O-])o2)cc1 | 18.5% | 9.8% | -0.166% | -5.06% | -76.8% | -91.9% | -86.5% | -92.7% | -30.4% | -44.1% | -96.9% | -100% | -99.3% | -100% | 3.49% | 4.92% | -9.29% | -10.6% | 83% | 88.8% | -1.25 | -1.57 | 3.4% | 0.123% | 81% | 103% | 103% | 103%
4 | CCCCCCCCOc1ccc(-c2noc([C@@H]3CCCN3C(=N)N)n2)cc1C(F)(F)F | 15.4% | 6.63% | 0.514% | -52.9% | -72.1% | -92.8% | -86.2% | -93.7% | 19.2% | -91.9% | -94.9% | -100% | -99.9% | -99.9% | 46.2% | 70.7% | -6.84% | -99.7% | 35.1% | 82.8% | -1.83 | -2.7 | -41.8% | -89.2% | 114% | 138% | 8.34% | 102%
5 | CN(c1ccccc1CNc1nc(Nc2ccc3c(c2)CC(=O)N3)ncc1C(F)(F)F)S(C)(=O)=O | 8.65% | 17.7% | -4.4% | -6.03% | -7.55% | -13.4% | -11% | -16.3% | 20.2% | 16.8% | 29.9% | 21.7% | 40.3% | 24.4% | 0.291% | 0.085% | -2.37% | -3.01% | 81.5% | 90.7% | -1.76 | -1.35 | 41.5% | -30.2% | -10.6% | -8.83% | 95.1% | 90.2%
6 | COc1cc(N2CCOCC2)ccc1Nc1ncc(F)c(Nc2ccccc2NS(C)(=O)=O)n1 | 0.324% | 14.1% | -2.71% | -11.9% | -6.38% | -20.1% | -5.57% | -17.4% | -27.7% | -60.9% | -32.8% | -74.5% | -27% | -69.7% | 0.77% | -0.256% | -10.8% | -4.79% | 12% | 70.3% | 0.0946 | 0.0988 | 7.89% | -19.1% | -20.4% | -26.8% | 11.9% | 14%
7 | CCc1cc(Nc2nccc(-c3c(-c4ccc(OC)c(C(=O)Nc5c(F)cccc5F)c4)nc4ccccn34)n2)c(OC)cc1N1CCC(N2CCN(S(C)(=O)=O)CC2)CC1 | 0% | 0.036% | -4.19% | -0.876% | -8.85% | -6.8% | -6.63% | -13% | 4.67% | 2.77% | 36.3% | 31.8% | 50.7% | 33.6% | 0.271% | -0.0593% | -19.6% | -24.3% | 4.68% | -3.87% | 0.344 | 0.176 | -15.3% | -19% | -8.69% | 2.76% | 3.43% | -1.34%
8 | O=C(c1cccs1)c1no[n+]([O-])c1C(=O)c1cccs1 | 0.216% | 14.3% | 1.03% | 2.49% | -13.1% | -40.1% | -30.5% | -54.9% | -17% | -39.6% | -29.1% | -78.3% | -50.4% | -91.5% | 1.47% | 2.4% | 0.304% | -15.7% | 36.5% | 82% | -0.427 | -1.21 | -32.4% | -81.3% | -24.1% | -23.9% | 103% | 103%
